Experiments:
Format in all cases: functional
Sclerotinia sclerotiorum = assay: Antifungal activity against Sclerotinia sclerotiorum at 150 uM
Rhizoctonia solani = assay: Antifungal activity against Rhizoctonia solani at 150 uM
Fusarium graminearum = assay: Antifungal activity against Fusarium graminearum at 150 uM
Pyricularia oryzae = assay: Antifungal activity against Pyricularia oryzae at 150 uM
Phytophthora capsici = assay: Antifungal activity against Phytophthora capsici at 150 uM

Measured: inhibition at 150 µM

CC1(C)CCC[C@]2(C)[C@H]3Cc4cc(OC(=O)c5ccccc5)ccc4O[C@]3(C)CC[C@@H]12
< 60%: all assays above

COc1ccc(C(=O)Oc2ccc3c(c2)C[C@@H]2[C@@]4(C)CCCC(C)(C)[C@@H]4CC[C@@]2(C)O3)cc1
< 60%: all assays above

CC1(C)CCC[C@]2(C)[C@H]3Cc4cc(Oc5cnc6ccccc6c5)ccc4O[C@]3(C)CC[C@@H]12
< 60%: all assays above

C#CCOc1ccc2c(c1)C[C@@H]1[C@@]3(C)CCCC(C)(C)[C@@H]3CC[C@@]1(C)O2
< 60%: all assays above

COc1ccc2c(c1)C[C@@H]1[C@@]3(C)CCCC(C)(C)[C@@H]3CC[C@@]1(C)O2
< 60%: all assays above

CC1(C)CCC[C@]2(C)[C@H]3Cc4cc(Oc5ccccn5)ccc4O[C@]3(C)CC[C@@H]12
< 60%: all assays above

CC1(C)CCC[C@]2(C)[C@H]3Cc4cc(Oc5ccccc5)ccc4O[C@]3(C)CC[C@@H]12
< 60%: all assays above

CC(=O)Oc1ccc2c(c1)C[C@@H]1[C@@]3(C)CCCC(C)(C)[C@@H]3CC[C@@]1(C)O2
< 60%: all assays above

CC(C)(C)C(=O)Oc1ccc2c(c1)C[C@@H]1[C@@]3(C)CCCC(C)(C)[C@@H]3CC[C@@]1(C)O2
< 60%: all assays above

CC1(C)CCC[C@]2(C)[C@H]3Cc4cc(OCc5ccccc5)ccc4O[C@]3(C)CC[C@@H]12
< 60%: all assays above

CC(C)=CCOc1ccc2c(c1)C[C@@H]1[C@@]3(C)CCCC(C)(C)[C@@H]3CC[C@@]1(C)O2
< 60%: all assays above

CCCOc1ccc2c(c1)C[C@@H]1[C@@]3(C)CCCC(C)(C)[C@@H]3CC[C@@]1(C)O2
< 60%: all assays above

CCOc1ccc2c(c1)C[C@@H]1[C@@]3(C)CCCC(C)(C)[C@@H]3CC[C@@]1(C)O2
< 60%: all assays above

C=CCOc1ccc2c(c1)C[C@@H]1[C@@]3(C)CCCC(C)(C)[C@@H]3CC[C@@]1(C)O2
< 60%: all assays above

C=CC(=O)Oc1ccc2c(c1)C[C@@H]1[C@@]3(C)CCCC(C)(C)[C@@H]3CC[C@@]1(C)O2
< 60%: all assays above
